The source of these data is patent US20080233251A1, “Method and Apparatus for Sterilizing Containers” (priority 2005, published 2008).

Several values for one entry are separate records, joined by “and”; a condition that tells them apart may be missing. Identical values can stand only once. Like-named read-outs stand apart in the source and are kept apart here.

What all share (format): cell-based
The subject of experiment [1] is B. subtilis var. globigii (ATCC 9372). The conditions noted are these: for Average: average of the logCFU/Swab replicates; for logCFU/Swab: log of surviving count per replicate (1-5); for logCFU/Swab / CFU/Swab: unagitated; for CFU/Swab: surviving count per replicate (1-5), contact times in label; for bactericidal effect (in words): text on Table Two. As to the method:
(§1) The experiments were designed to identify the conditions optimal for polymer sterilization and also explore the boundary areas to determine the conditions limiting the efficacy of the treatment. Each polymer strip was inoculated by drop spotting approximately 100 micro-liters and coating the surface by swabbing the surface of the polyethylene strip. The culture was allowed to dry before sterilization. Each strip of polyethylene was treated by vigorously agitating the strip in the appropriate treatment solutions. Each treated polymer strip was then treated with catalase to inactivate residual peroxide, swabbed and plated using TGE incubated at 35° C. for two days.
A log measurement value is provided below each of the non-log values. The sterilization was conducted at 50° C.

Experiment [2] shares this test system. The conditions noted are these: surviving count per replicate strip (replicates 1-5), 50° C., inoculum 10^6.
Text: as §1, with “The following examples illustrate the efficacy of the method of the present invention. The experiments” for “The experiments”
In Table One, a NaOH control, an inoculated untreated control, and two methods of the present invention were measured and the results set forth in Table 1. Five replicate polymer strips were used for each of the two methods of the present invention. A log measurement value is provided below each of the non-log values. The first method uses hydrogen peroxide first and then an alkaline solution of sodium hydroxide. The second method uses an alkaline solution of sodium hydroxide first and then hydrogen peroxide. The sterilization was conducted at 50° C.

Experiment [3] has the same test system. The conditions noted are these: 35° C., 30 seconds; for CFU/Swab: surviving count per replicate (1-5). On the procedure: as §1
In Table Three, a solution of 0.1 Normal potassium hydroxide (KOH) was utilized with a solution of 3% hydrogen peroxide at a temperature of 35° C. for 30 seconds.

In the case of `OO` [50° C. 30 s 35% H2O2 10 s catalase, hydrogen peroxide], the Average in experiment [1] came out at 2.30. Also, in experiment [1] (50° C.), the logCFU/Swab is 1.60 logCFU/Swab and 1.30 logCFU/Swab; the CFU/Swab was 40 CFU/Swab and 570 CFU/Swab and 20 CFU/Swab and 270 CFU/Swab and 2700 CFU/Swab. In addition, the “log inactivation per 10 seconds of treatment” value in experiment [1] (rate of kill per unit time, 50° C.) was found to be 1.45 log per 10 seconds.
Take `[Na+].[OH-]` [1M NaOH Control, sodium hydroxide]: the CFU/Swab in experiment [2] was 5,700 CFU/Swab and 210 CFU/Swab.
Turning to `OO` [50° C. 30 s 3.5% H2O2 10 s catalase, hydrogen peroxide], in experiment [1] (50° C.), the “bactericidal effect (in words)” value is given as “no effect”; the logCFU/Swab was 6.20 logCFU/Swab and 6.60 logCFU/Swab and 6.70 logCFU/Swab; the CFU/Swab is 1,600,000 CFU/Swab and 4,200,000 CFU/Swab and 4,000,000 CFU/Swab and 3,000,000 CFU/Swab and 5,000,000 CFU/Swab. This molecule displayed an Average in experiment [1] of 6.52. Also, the Log reduction in experiment [1] (versus inoculated untreated control (average 6.66)) was found to be 0.14.
In turn, catalase [Catalase Control] gave a logCFU/Swab in experiment [3] (log of surviving count per replicate (1-5)) of 6.40 logCFU/Swab. Also, in experiment [3], the CFU/Swab is 2,500,000 CFU/Swab.
Regarding `OO` [H2O2 Control, hydrogen peroxide], the CFU/Swab in experiment [3] is listed as 5,200,000 CFU/Swab.
Regarding `[Na+].[OH-]` [50° C. 10 s 0.25M NaOH Control, sodium hydroxide], in experiment [1] (50° C.), the “bactericidal effect (in words)” value was “no bacteriocidal effect”; the logCFU/Swab is 6.80 logCFU/Swab and 6.90 logCFU/Swab; the CFU/Swab was 6,300,000 CFU/Swab and 3,800,000 CFU/Swab and 7,900,000 CFU/Swab and 5,400,000 CFU/Swab. Also, the Average in experiment [1] turned out to be 6.75.
